Laboratory results from patent US20200277404A1, “COMPOSITIONS AND METHODS FOR REGULATION OF IMMUNE CELL ACTIVATION AND PROLIFERATION” (MONELL CHEMICAL SENSES CENTER, priority 2017, published 2020).

Tested on: bitter receptors (T2Rs)
Experiment: Expression of bitter receptors (T2Rs) in Raw264.7 cells treated with LPS or DEX
Type: cell-based
Details: mouse monocyte/macrophage Raw264.7 cell line, FIG. 4
Method: The mouse monocyte/macrophage Raw264.7 cell line was also used to study T2Rs. Raw264.7 cells were treated with lipopolysaccharide (LPS) and dexamethasone (DEX).

lipopolysaccharide [LPS] was tested, and the “expression levels of some bitter receptors (T2Rs)” value was “strongly induced”.
